Assay results reported in publication PMC10460880, “Cathepsin K‐Activated Probe for Fluoro‐Photoacoustic Imaging of Early Osteolytic Metastasis” (Advanced Science, 2023).

Experiments:
[1] = tested on: CTSK-overexpressing OCs on calf bone slice; test: In vitro bone resorption imaging assay; type: cell-based, C57BL/6J mice; conditions: 2-CP 50 mM, 37 °C, 30 min, then CTSK-APPA 5 μM, 2 h
Experimental: PS. RAW 264.7 cells and BMMs were maintained in an atmosphere of 5% CO2 and 95% humidified air at 37 °C. The medium was changed every day.
Cell cytotoxicity assay. MDA-MB-231/Luc and RAW 264.7 cells were seeded in 96-well plates (5×10^3 cells per well) for 24 h and then incubated with CTSK-APPA or CTSK-APP (5, 10, 20, 50 μM) or saline for 24 h. The medium was removed and cells were incubated with CCK-8 (0.5 mg/mL) for another 1 h. The absorbance of the mixture at 450 nm was measured by using a microplate reader. Cell viability was expressed by the ratio of the absorbance of the cells incubated with the probes to that of the cells incubated with culture medium only.
In vitro osteoclast differentiation. Bone marrow-derived macrophages were isolated from the femurs and tibias of 4-week-old C57BL/6J mice and cultured in a complete medium containing M-CSF (30 ng/mL) for 4 days. BMMs were harvested to the 24-well plates (1×10^4 per well) and cultured in the complete medium containing M-CSF (30 ng/mL) and RANKL (100 ng/mL) for another 4 days. The osteoclasts were fixed and stained by using acid phosphatase and a leukocyte kit according to the manufacturer’s procedures.
In vitro bone resorption imaging assay. […]
Fluorescence images were captured by using the IVIS Spectrum imaging system with excitation […]

OCs = test: Cell selectivity experiment, osteoclasts; type: cell-based; conditions: n = 3
[2] = tested on: MDA-MB-231/Luc-induced osteolytic metastasis; test: Real-time NIR fluorescence and PA imaging of osteolytic metastasis; type: in vivo, BALB/c nude mice; conditions: 2-CP 50 mM, 200 μL, 1 h before probe; n = 3
Experimental: page 5: PS. RAW 264.7 cells and BMMs were maintained in an atmosphere of 5% CO2 and 95% humidified air at 37 °C. The medium was changed every day. Cell cytotoxicity assay. MDA-MB-231/Luc and RAW 264.7 cells were seeded in 96-well plates (5×10^3 cells per well) for 24 h and then incubated with CTSK-APPA or CTSK-APP (5, 10, 20, 50 μM) or saline for 24 h. The medium was removed and cells were incubated with CCK-8 (0.5 mg/mL) for another 1 h. The absorbance of the mixture at 450 nm was measured by using a microplate reader. Cell viability was expressed by the ratio of the absorbance of the cells incubated with the probes to that of the cells incubated with culture medium only. In vitro osteoclast differentiation. Bone marrow-derived macrophages were isolated from the femurs and tibias of 4-week-old C57BL/6J mice and cultured in a complete medium containing M-CSF (30 ng/mL) for 4 days. […] Fluorescence images were captured by using the IVIS Spectrum imaging system with excitation at 660 ± 10 nm and emission at 710 ± 10 nm. […] The bone marrow toxicity of CTSK-APPA and CTSK-APP was assessed by blood analyses in mice. […] The red blood count (RBC) and white blood count (WBC) were further measured. […] The supernatants containing excreted probes were quantified by using a UV-vis absorption spectrometer. […]

`N#Cc1ncccn1` [Probe 2-CP, 2-Cyanopyrimidine, reference compound] was tested, and the “effect of inhibitor pre-treatment on CTSK-APPA fluorescence of bone-resorption slice” value [1] was “remarkably suppressed NIR fluorescence”, the “effect of inhibitor on CTSK-APPA fluorescence in OCs” value (OCs) was “effectively reduced” and the “effect of preinjected inhibitor on NIR fluorescence and PA signals of CTSK-APPA” value [2] was “reduced to the CTSK‐APP levels”.
